# Target: T1, Human complement C1s enzyme (Homo sapiens, UniProt P09871)
# T1 sequence (P09871 438-688 limits assumed): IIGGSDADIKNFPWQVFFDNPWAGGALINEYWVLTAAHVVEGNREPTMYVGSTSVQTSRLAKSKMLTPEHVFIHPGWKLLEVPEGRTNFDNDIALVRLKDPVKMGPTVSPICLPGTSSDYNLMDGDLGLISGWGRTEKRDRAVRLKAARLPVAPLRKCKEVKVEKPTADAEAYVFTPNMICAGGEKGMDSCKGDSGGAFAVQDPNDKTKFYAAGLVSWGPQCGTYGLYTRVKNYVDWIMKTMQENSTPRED
# T1 sequence (P09871 16-437 partner limits assumed): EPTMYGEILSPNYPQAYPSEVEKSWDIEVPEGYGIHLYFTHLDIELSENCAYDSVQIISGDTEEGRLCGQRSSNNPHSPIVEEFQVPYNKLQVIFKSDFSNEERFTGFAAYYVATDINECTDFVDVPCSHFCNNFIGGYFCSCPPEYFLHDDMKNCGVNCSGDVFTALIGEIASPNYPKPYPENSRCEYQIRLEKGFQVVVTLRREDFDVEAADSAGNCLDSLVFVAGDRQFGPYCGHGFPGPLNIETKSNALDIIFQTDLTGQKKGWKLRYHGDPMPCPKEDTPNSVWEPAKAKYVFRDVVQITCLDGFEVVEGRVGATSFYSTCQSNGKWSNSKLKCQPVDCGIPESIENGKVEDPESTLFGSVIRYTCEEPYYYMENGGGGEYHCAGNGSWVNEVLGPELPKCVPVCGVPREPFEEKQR
# Assay: Human C1s enzyme assay
# Assay type: biochemical
# Settings: human complement C1s enzyme 1.16 nM, substrate Z-L-Lys-SBzl 100 μM, 5 min preincubation; read-out: IC50 (Stars), C1s Inhibiting Activity
# Method in brief: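 Serum-purified human C1s (1.16 nM final) preincubated 5 min at room temperature with compound in 50 mM Tris, 1 M NaCl, pH 7.5. Z-L-Lys-SBzl and DTNB added at 100 μM each; A405 followed every 30 s for 30 min, and IC50 obtained by nonlinear regression of reaction rates.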
row,Compound,IC50 [µM]
1,"O=C(NCC(=O)N1CC2(C[C@H]1C(=O)NCc1nc3cnccc3o1)OCCO2)c1ccc2c(c1)Oc1ccccc1S2 [Compound 31, (S)-N-(oxazolo[4,5-c]pyridin-2-ylmethyl)-7-((phenoxathiine-3-carbonyl)glycyl)-1,4-dioxa-7-azaspiro[4.4]nonane-8-carboxamide]",> 1
2,"O=C(NCC(=O)N1CC2(C[C@H]1C(=O)NCc1cc3cccnc3[nH]1)OCCO2)c1ccc2c(c1)-c1ccccc1C2(F)F [Compound 10, (S)-N-((1H-pyrrolo[2,3-b]pyridin-2-yl)methyl)-7-((9,9-difluoro-9H-fluorene-3-carbonyl)glycyl)-1,4-dioxa-7-azaspiro[4.4]nonane-8-carboxamide]",> 1
3,"O=C(NCC(=O)N1C[C@H](OC(F)F)C[C@H]1C(=O)N[C@H](CO)c1cc2cnccc2[nH]1)c1ccc(Oc2ccc(F)cc2)cc1 [Compound 98, (2S,4R)-4-(difluoromethoxy)-1-((4-(4-fluorophenoxy)benzoyl)glycyl)-N-((S)-2-hydroxy-1-(1H-pyrrolo[3,2-c]pyridin-2-yl)ethyl)pyrrolidine-2-carboxamide]",0.1 to 1
4,"CS(=O)(=O)[C@@H]1C[C@@H](C(=O)N[C@H](CO)c2cc3cnccc3[nH]2)N(C(=O)CNC(=O)c2ccc3c(c2)-c2ccccc2C3(F)F)C1 [Compound 104, (2S,4R)-1-((9,9-difluoro-9H-fluorene-3-carbonyl)glycyl)-N-((S)-2-hydroxy-1-(1H-pyrrolo[3,2-c]pyridin-2-yl)ethyl)-4-(methylsulfonyl) pyrrolidine-2-carboxamide]",0.1 to 1
5,"O=C(NCC(=O)N1C[C@H](OC(F)F)C[C@H]1C(=O)NCc1ccc2cc[nH]c2n1)c1ccc2c(c1)Oc1ccccc1S2 [Compound 229, (2S,4R)-N-((1H-pyrrolo[2,3-b]pyridin-6-yl)methyl)-4-(difluoromethoxy)-1-((phenoxathiine-3-carbonyl)glycyl)pyrrolidine-2-carboxamide]",> 1
6,"C[C@@]12C[C@@H]1N(C(=O)CNC(=O)c1ccc3c(c1)Oc1ccccc1S3)[C@H](C(=O)NCc1ccc(B(O)O)cc1)C2 [Compound 263, (4-(((1S,3S,5S)-5-methyl-2-((phenoxathiine-3-carbonyl)glycyl)-2-azabicyclo[3.1.0]hexane-3-carboxamido)methyl)phenyl) boronic acid]",> 1
7,"C[C@@H](NC(=O)[C@@H]1C[C@](F)(CF)CN1C(=O)CNC(=O)c1ccc(-c2ccc(F)cc2F)cc1)c1cc2cnccc2[nH]1 [Compound 162, (2S,4R)-N-((R)-1-(1H-pyrrolo[3,2-c]pyridin-2-yl)ethyl)-1-((2′,4′-difluoro-[1,1′-biphenyl]-4-carbonyl)glycyl)-4-fluoro-4-(fluoromethyl)pyrrolidine-2-carboxamide]",0.1 to 1
8,"O=C(NCC(=O)N1CC2(C[C@H]1C(=O)NCc1cc3nccnc3[nH]1)OCCO2)c1ccc2c(c1)Oc1ccccc1S2 [Compound 48, (S)-N-((5H-pyrrolo[2,3-b]pyrazin-6-yl)methyl)-7-((phenoxathiine-3-carbonyl)glycyl)-1,4-dioxa-7-azaspiro[4.4]nonane-8-carboxamide]",> 1
9,"O=C(NCC(=O)N1C[C@H](OC(F)F)C[C@H]1C(=O)NCc1ccc2[nH]ccc2n1)c1ccc2c(c1)Oc1ccccc1S2 [Compound 230, (2S,4R)-N-((1H-pyrrolo[3,2-b]pyridin-5-yl)methyl)-4-(difluoromethoxy)-1-((phenoxathiine-3-carbonyl)glycyl)pyrrolidine-2-carboxamide]",> 1
10,"O=C(NCC(=O)N1CC2(C[C@H]1C(=O)NCc1cc3cnc(Cl)cc3[nH]1)OCCO2)c1ccc2c(c1)Oc1ccccc1S2 [Compound 43, (S)-N-((6-chloro-1H-pyrrolo[3,2-c]pyridin-2-yl)methyl)-7-((phenoxathiine-3-carbonyl)glycyl)-1,4-dioxa-7-azaspiro[4.4]nonane-8-carboxamide]",> 1

# More lines, now with the values ahead:
row,IC50 [µM],Compound
1,< 0.1,"CO[C@@H]1C[C@@H](C(=O)N[C@H](C)c2cc3cnccc3[nH]2)N(C(=O)CNC(=O)c2ccc3c(c2)Oc2ccccc2S3)C1 [Compound 160, (2S,4R)-N-((R)-1-(1H-pyrrolo[3,2-c]pyridin-2-yl)ethyl)-4-methoxy-1-((phenoxathiine-3-carbonyl)glycyl)pyrrolidine-2-carboxamide]"
2,< 0.1,"O=C(NCC(=O)N1C[C@H](OC(F)F)C[C@H]1C(=O)NCc1cc2cnccc2[nH]1)c1ccc(Oc2ccccc2)cc1 [Compound 18, (2S,4R)-N-((1H-pyrrolo[3,2-c]pyridin-2-yl)methyl)-4-(difluoromethoxy)-1-((4-phenoxybenzoyl)glycyl) pyrrolidine-2-carboxamide]"
3,0.1 to 1,"C[C@@H](NC(=O)[C@@H]1C[C@@H](S(C)(=O)=O)CN1C(=O)CNC(=O)c1ccc(-c2ccccc2)cc1)c1cc2cnccc2[nH]1 [Compound 82, (2S,4R)-N-((R)-1-(1H-pyrrolo[3,2-c]pyridin-2-yl)ethyl)-1-(([1,1′-biphenyl]-4-carbonyl)glycyl)-4-(methylsulfonyl)pyrrolidine-2-carboxamide]"
4,< 0.1,"Cc1cccc(-c2nc(C)cc(C(=O)NCC(=O)N3CC4(C[C@H]3C(=O)NCc3cc5cnccc5[nH]3)OCCO4)c2C)c1 [Compound 306, (S)-N-((1H-pyrrolo[3,2-c]pyridin-2-yl)methyl)-7-((3,6-dimethyl-2-(m-tolyl)isonicotinoyl)glycyl)-1,4-dioxa-7-azaspiro[4.4]nonane-8-carboxamide]"
5,< 0.1,"Cc1cc(Oc2ccc(C)cc2F)cc(C(=O)NCC(=O)N2C[C@H](OC(F)F)C[C@H]2C(=O)NCc2cc3cnccc3[nH]2)c1 [Compound 328, (2S,4R)-N-((1H-pyrrolo[3,2-c]pyridin-2-yl)methyl)-4-(difluoromethoxy)-1-((3-(2-fluoro-4-methylphenoxy)-5-methylbenzoyl)glycyl)pyrrolidine-2-carboxamide]"
6,< 0.1,"O=C(NCC(=O)N1CC2(C[C@H]1C(=O)NCc1cc3cnccc3[nH]1)OCCO2)c1ccc2oc3ccccc3c2c1 [Compound 35, (S)-N-((1H-pyrrolo[3,2-c]pyridin-2-yl)methyl)-7-((dibenzo[b,d]furan-2-carbonyl)glycyl)-1,4-dioxa-7-azaspiro[4.4]nonane-8-carboxamide]"
7,< 0.1,"O=C(NCC(=O)N1C[C@H](OC(F)F)C[C@H]1C(=O)NCc1cc2cnccc2[nH]1)c1ccc(F)c(Oc2ccccc2)c1 [Compound 304, (2S,4R)-N-((1H-pyrrolo[3,2-c]pyridin-2-yl)methyl)-4-(difluoromethoxy)-1-((4-fluoro-3-phenoxybenzoyl)glycyl)pyrrolidine-2-carboxamide]"
8,< 0.1,"O=C(NCC(=O)N1C[C@H](OC(F)F)C[C@H]1C(=O)NCc1cc2c(s1)CNCC2)c1ccc2c(c1)Oc1ccccc1S2 [Compound 210, (2S,4R)-4-(difluoromethoxy)-1-((phenoxathiine-3-carbonyl)glycyl)-N-((4,5,6,7-tetrahydrothieno[2,3-c]pyridin-2-yl)methyl)pyrrolidine-2-carboxamide]"
9,< 0.1,"C[C@@H](NC(=O)[C@@H]1C[C@@H](C2OCCCO2)CN1C(=O)CNC(=O)c1ccc2c(c1)Oc1ccccc1S2)c1cc2cnccc2[nH]1 [Compound 145, (2S,4R)-N-((R)-1-(1H-pyrrolo[3,2-c]pyridin-2-yl)ethyl)-4-(1,3-dioxan-2-yl)-1-((phenoxathiine-3-carbonyl)glycyl)pyrrolidine-2-carboxamide]"
10,< 0.1,"O=C(NCC(=O)N1C[C@H](OC(F)F)C[C@H]1C(=O)NCc1cc2cnccn2c1)c1cccc(Oc2ccc(F)cc2)c1 [Compound 278, (2S,4R)-4-(difluoromethoxy)-1-((3-(4-fluorophenoxy)benzoyl)glycyl)-N-(pyrrolo[1,2-a]pyrazin-7-ylmethyl)pyrrolidine-2-carboxamide]"
11,< 0.1,"O=C(NCc1cc2cnccc2[nH]1)[C@@H]1CC2(CN1C(=O)CN1Cc3ccc(-c4ccc(F)cc4F)cc3C1=O)OCCO2 [Compound 125, (S)-N-((1H-pyrrolo[3,2-c]pyridin-2-yl)methyl)-7-(2-(6-(2,4-difluorophenyl)-1-oxoisoindolin-2-yl)acetyl)-1,4-dioxa-7-azaspiro[4.4]nonane-8-carboxamide]"
12,< 0.1,"O=C(NCC(=O)N1CC2(C[C@H]1C(=O)NCc1cc3cnccc3[nH]1)OCCO2)c1ccc2c(c1)oc1ccccc12 [Compound 213, (S)-N-((1H-pyrrolo[3,2-c]pyridin-2-yl)methyl)-7-((dibenzo[b,d]furan-3-carbonyl)glycyl)-1,4-dioxa-7-azaspiro[4.4]nonane-8-carboxamide]"
13,< 0.1,"Cc1ccc(COc2cccc(C(=O)NCC(=O)N3C[C@H](OC(F)F)C[C@H]3C(=O)NCc3cc4cnccc4[nH]3)c2)c(F)c1 [Compound 325, (2S,4R)-N-((1H-pyrrolo[3,2-c]pyridin-2-yl)methyl)-4-(difluoromethoxy)-1-((3-((2-fluoro-4-methylbenzyl)oxy)benzoyl)glycyl)pyrrolidine-2-carboxamide]"
